Data published in PubChem BioAssay (NCI).
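Test compounds were applied to cells in 96-well plates for 48 hours at 5 doses. TGI marks complete inhibition of growth.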

What follows are molecules tested on HT29 colon (assay: NCI anticancer screen, dose series, 48 h).

| Structure (SMILES) | TGI |
| --- | --- |
| O=c1oc2ccccc2cc1-c1cc2ccccn2c1 | > 100 µM |
| COC(=O)c1c(O)ccc2c1c1c(n2Cc2cc(OC)cc(OC)c2)C(=O)c2ccccc2C1 | 24.6 µM |
| COC[C@@H](N=CC(C)(C)C)C(C)C | > 100 µM |
| NC(N)=NCCN1CC2CCC(CC2)C1 | > 100 µM |
| O=[N+]([O-])c1cccc(C2=NN(c3ccccc3)C[N+](c3ccc(Br)cc3)=N2)c1 | > 100 µM |
| CCOC(=O)NC(Nc1ccc(C)cc1)(C(F)(F)F)C(F)(F)F | > 100 µM |
| [N-]=[N+]=Nc1c([N+](=O)[O-])c(=O)n(-c2ccccc2)c2ccccc12 | > 100 µM |
| O=[N+]([O-])c1ccc2[nH]c(=S)[nH]c(=S)c2c1 | > 100 µM |

These molecules were tested on OVCAR-8 ovarian (assay: NCI anticancer screen, dose series, 48 h).

| Structure (SMILES) | TGI |
| --- | --- |
| O=[N+]([O-])C[C@@]12O[C@]3(O)C4C5CC(C6C5C3C61)C42 (some centres not stated) | > 100 µM |
| O=C1C2SC34c5c2c2ccccc2n5CCC3CCCN14 (configuration not stated) | > 100 µM |
| CCCC(=O)NC(NC1CCCCC1)(C(=O)OCC)C(F)(F)F (configuration not stated) | > 100 µM |
| O=C(/C=C/c1ccccc1)Oc1cccc(O)c1 | > 100 µM |
| Cc1c2n(c(=O)[nH]c1=O)C1OC(CO)C(O2)C1O (configuration not stated) | > 100 µM |
| COc1cccc(C(=O)Oc2ccc(OS(=O)(=O)c3ccc(C)cc3)cc2)c1C#N | > 100 µM |
| CC1(C)/C(=N\NC(N)=O)C2CCC1C2 (configuration not stated) | > 100 µM |
| Cc1ccc(C2SCC(=O)N2c2ccc(-n3c(-c4ccccc4)nc4ccccc4c3=O)cc2)cc1 (configuration not stated) | > 100 µM |
| CC(C)C1=CC23CCC4C(C)(C(=O)O)CCCC4(C)C2CC1C1C(=O)N(c2ccc(Cc4ccc(N5C(=O)C6C7CC8C9(C)CCCC(C)(C(=O)O)C9CCC8(C=C7C(C)C)C6C5=O)cc4)cc2)C(=O)C13 (configuration not stated) | 22.5 µM |
| Cn1c(=O)c2c(ncn2CCNC(CO)C(O)c2ccc([N+](=O)[O-])cc2)n(C)c1=O (configuration not stated) | > 100 µM |
| CCCNC(=O)NNC(=O)c1c[nH]c2nc(C)ccc2c1=O | > 100 µM |
| C=CCCON(C(=O)OC(C)(C)C)C(C)(C)C | > 100 µM |
| CCOC(=O)Nc1[nH]cc(-c2ccccc2)c1C#N | > 100 µM |
| [N-]=[N+]=NC1(Cc2ccccc2)C(=O)c2cccc3c2N(CCC3)C1=O (configuration not stated) | > 100 µM |
| NC(N)=NS(=O)(=O)c1ccc(NNc2c3ccccc3nc3c(C(=O)Nc4ccc(S(=O)(=O)Nc5ncccn5)cc4)cccc23)cc1 | > 100 µM |
| O=c1oc2ccccc2cc1-c1cc2ccccn2c1 | > 100 µM |
| COC(=O)c1c(O)ccc2c1c1c(n2Cc2cc(OC)cc(OC)c2)C(=O)c2ccccc2C1 | > 100 µM |
| COC[C@@H](N=CC(C)(C)C)C(C)C | > 100 µM |
| NC(N)=NCCN1CC2CCC(CC2)C1 | > 100 µM |
| O=[N+]([O-])c1cccc(C2=NN(c3ccccc3)C[N+](c3ccc(Br)cc3)=N2)c1 | > 100 µM |
| O=C(O)CCCc1nc2c(n1Cc1ccccc1)C(=O)c1ccccc1C2=O | > 100 µM |
| CCOC(=O)NC(Nc1ccc(C)cc1)(C(F)(F)F)C(F)(F)F | > 100 µM |
| [N-]=[N+]=Nc1c([N+](=O)[O-])c(=O)n(-c2ccccc2)c2ccccc12 | 48.9 µM |
| O=[N+]([O-])c1ccc2[nH]c(=S)[nH]c(=S)c2c1 | > 100 µM |

The molecules below were run on U251 CNS (assay: NCI anticancer screen, dose series, 48 h).

| Structure (SMILES) | TGI |
| --- | --- |
| O=[N+]([O-])C[C@@]12O[C@]3(O)C4C5CC(C6C5C3C61)C42 (some centres not stated) | > 100 µM |
| O=C1C2SC34c5c2c2ccccc2n5CCC3CCCN14 (configuration not stated) | > 100 µM |
| CCCC(=O)NC(NC1CCCCC1)(C(=O)OCC)C(F)(F)F (configuration not stated) | > 100 µM |
| O=C(/C=C/c1ccccc1)Oc1cccc(O)c1 | > 100 µM |
| Cc1c2n(c(=O)[nH]c1=O)C1OC(CO)C(O2)C1O (configuration not stated) | > 100 µM |
| COc1cccc(C(=O)Oc2ccc(OS(=O)(=O)c3ccc(C)cc3)cc2)c1C#N | > 100 µM |
| CC1(C)/C(=N\NC(N)=O)C2CCC1C2 (configuration not stated) | > 100 µM |
| Cc1ccc(C2SCC(=O)N2c2ccc(-n3c(-c4ccccc4)nc4ccccc4c3=O)cc2)cc1 (configuration not stated) | 35 µM |
| CC1(C)[C@@H](Cn2ccc(=O)[nH]c2=O)CC[C@@]1(C)CO | > 100 µM |
| CC(C)C1=CC23CCC4C(C)(C(=O)O)CCCC4(C)C2CC1C1C(=O)N(c2ccc(Cc4ccc(N5C(=O)C6C7CC8C9(C)CCCC(C)(C(=O)O)C9CCC8(C=C7C(C)C)C6C5=O)cc4)cc2)C(=O)C13 (configuration not stated) | 14.4 µM |
| Cn1c(=O)c2c(ncn2CCNC(CO)C(O)c2ccc([N+](=O)[O-])cc2)n(C)c1=O (configuration not stated) | > 100 µM |
| CCCNC(=O)NNC(=O)c1c[nH]c2nc(C)ccc2c1=O | > 100 µM |
| C=CCCON(C(=O)OC(C)(C)C)C(C)(C)C | > 100 µM |
| CCOC(=O)Nc1[nH]cc(-c2ccccc2)c1C#N | > 100 µM |
| [N-]=[N+]=NC1(Cc2ccccc2)C(=O)c2cccc3c2N(CCC3)C1=O (configuration not stated) | > 100 µM |
| NC(N)=NS(=O)(=O)c1ccc(NNc2c3ccccc3nc3c(C(=O)Nc4ccc(S(=O)(=O)Nc5ncccn5)cc4)cccc23)cc1 | > 100 µM |
| O=c1oc2ccccc2cc1-c1cc2ccccn2c1 | > 100 µM |
| COC(=O)c1c(O)ccc2c1c1c(n2Cc2cc(OC)cc(OC)c2)C(=O)c2ccccc2C1 | > 100 µM |
| COC[C@@H](N=CC(C)(C)C)C(C)C | > 100 µM |
| NC(N)=NCCN1CC2CCC(CC2)C1 | > 100 µM |
| O=C1COc2cccnc2N1CCCCO | > 100 µM |
| O=[N+]([O-])c1cccc(C2=NN(c3ccccc3)C[N+](c3ccc(Br)cc3)=N2)c1 | > 100 µM |
| O=C(O)CCCc1nc2c(n1Cc1ccccc1)C(=O)c1ccccc1C2=O | > 100 µM |
| CCOC(=O)NC(Nc1ccc(C)cc1)(C(F)(F)F)C(F)(F)F | > 100 µM |
| [N-]=[N+]=Nc1c([N+](=O)[O-])c(=O)n(-c2ccccc2)c2ccccc12 | 49.3 µM |
